The test system of data set [1] is Glycogen synthase kinase-3 alpha (Homo sapiens), P49840 [UNDEFINED MUTATION]. Nature of the data set: Inhibition of human GSK-3alpha S449A mutant (2 to end residues) at 10 uM using phospho GS2 peptide as substrate after 40 mins in presence of [gamma-33ATP] by scintillation counting method relative to control.
In a further data set the target is GSK-3beta (H350L mutant) (Homo sapiens, UniProt P49841, H350L). Nature of the data set: Inhibition of human GSK-3beta H350L mutant (2 to end residues) at 10 uM using phospho GS2 peptide as substrate after 40 mins by [gamma-33ATP] radiometric assay relative to control. As to conditions: human GSK-3beta H350L mutant enzyme (residues 2 to end), probe phospho GS2 peptide.

Data set [2] relates to Tyrosine-protein kinase ABL1 (Homo sapiens), P00519 [H396P]. As to the kind of experiment: Inhibition of human ABL1 H396P mutant (27 to end residues) assessed as residual activity at 1 uM using EAIYAAPFAKKK as substrate incubated for 40 mins in presence of [gamma-33ATP] by scintillation counting based radiometry assay relative to control.
Data set [3] deals with Tyrosine-protein kinase ABL1 (Homo sapiens), P00519 [M351T]. Nature of the data set: Inhibition of human ABL1 M351T mutant (27 to end residues) assessed as residual activity at 1 uM using EAIYAAPFAKKK as substrate incubated for 40 mins in presence of [gamma-33ATP] by scintillation counting based radiometry assay relative to control.
Data set [4] concerns the target Cyclin-dependent kinase-like 3 (Homo sapiens) (UniProt Q8IVW4). Nature of the data set: Inhibition of recombinant full length human CDKL3 assessed as residual activity at 1 uM using RRRFRPASPLRGPPK as substrate incubated for 120 mins in presence of [gamma-33ATP] by scintillation counting based radiometry assay relative to control.
The target in data set [5] is Casein kinase I isoform gamma-2 (Homo sapiens) (UniProt P78368). Nature of the data set: Inhibition of recombinant human CK1gamma2 (18 to end residues) assessed as residual activity at 1 uM using KRRRALS(p)VASLPGL as substrate incubated for 40 mins in presence of [gamma-33ATP] by scintillation counting based radiometry assay relative to control.
For data set [6], the system named is Casein kinase I isoform gamma-3 (Homo sapiens), Q9Y6M4 [UNDEFINED MUTATION]. Nature of the data set: Inhibition of recombinant human CK1gamma3 K91E/R174G/E302D mutant (1 to 330 residues) assessed as residual activity at 1 uM using KRRRALS(p)VASLPGL as substrate incubated for 40 mins in presence of [gamma-33ATP] by scintillation counting based radiometry assay relative to control.

Data set [7] addresses Casein kinase I isoform delta (Homo sapiens) (UniProt P48730). Nature of the data set: Inhibition of recombinant human CK1delta (1 to 294 residues) assessed as residual activity at 1 uM using KRRRALS(p)VASLPGL as substrate incubated for 40 mins in presence of [gamma-33ATP] by scintillation counting based radiometry assay relative to control.
Data set [8] addresses Dual specificity tyrosine-phosphorylation-regulated kinase 3 (Homo sapiens) (UniProt O43781). Nature of the data set: Inhibition of recombinant human DYRK3 assessed as residual activity at 1 uM using RRRFRPASPLRGPPK as substrate at 40 mins in presence of [gamma-33ATP] by scintillation counting based radiometry assay relative to control.
The target in data set [9] is Ephrin type-B receptor 3 (Homo sapiens) (UniProt P54753). As to the kind of experiment: Inhibition of recombinant human EphB3 (599 to 920 residues) assessed as residual activity at 1 uM using poly(Glu, Tyr) 4:1 as substrate at 40 mins in presence of [gamma-33ATP] by scintillation counting based radiometry assay relative to control.
Data set [10] concerns the target Serine/threonine-protein kinase haspin (Homo sapiens) (UniProt Q8TF76). As to the kind of experiment: Inhibition of human Haspin (471 to end residues ) assessed as residual activity at 1 uM using RARTLSFAEPG as substrate after 40 mins by [gamma-33ATP] radiometric assay relative to control.
Data set [11] has as its target Homeodomain-interacting protein kinase 4 (Homo sapiens) (UniProt Q8NE63). As to the kind of experiment: Inhibition of human HIPK4 assessed as residual activity at 1 uM using RRRFRPASPLRGPPK as substrate after 40 mins by [gamma-33ATP] radiometric assay relative to control.
In data set [12] the test system is Hepatocyte growth factor receptor (Homo sapiens), P08581 [M1250T]. As to the kind of experiment: Inhibition of recombinant human MET A1209G/V1290L/M1268T mutant (974 to end residues) assessed as residual activity at 1 uM using KKKGQEEEYVFIE as substrate incubated for 40 mins in presence of [gamma-33ATP by scintillation counting based radiometry assay relative to control.

In data set [13] the target is Misshapen-like kinase 1 (Homo sapiens) (UniProt Q8N4C8). As to the kind of experiment: Inhibition of recombinant human MINK (1 to 310 residues) assessed as residual activity at 1 uM using myelin basic protein as substrate measured after 40 mins in presence of [gamma33P]ATP by scintillation counting method.
Data set [14] addresses Dual specificity mitogen-activated protein kinase kinase 3 (Homo sapiens) (UniProt P46734). Nature of the data set: Inhibition of recombinant human MKK3 assessed as residual activity at 1 uM by scintillation counting based radiometry assay relative to control.
Data set [15] concerns the target Serine/threonine-protein kinase 24 (Homo sapiens) (UniProt Q9Y6E0). Nature of the data set: Inhibition of recombinant human MST3 (1 to 304 residues) assessed as residual activity at 1 uM using ERMRPRKRQGSVRRRV as substrate measured after 40 mins in presence of [gamma33P]ATP by scintillation counting method relative to control.
The target in data set [16] is Serine/threonine-protein kinase Nek6 (Homo sapiens) (UniProt Q9HC98). As to the kind of experiment: Inhibition of recombinant human NEK6 (2 to end residues) assessed as residual activity at 1 uM using FLAKSFGSPNRAYKK as substrate measured after 40 mins in presence of [gamma33P]ATP by scintillation counting method relative to control.
Data set [17] concerns the target Serine/threonine-protein kinase pim-1 (Homo sapiens) (UniProt P11309). Nature of the data set: Inhibition of recombinant full length human Pim1 assessed as residual activity at 1 uM using KKRNRTLTV as substrate measured after 40 mins in presence of [gamma33P]ATP by scintillation counting method relative to control.
Data set [18] has as its system RAC-beta serine/threonine-protein kinase (Homo sapiens), P31751 [S474D]. As to the kind of experiment: Inhibition of recombinant human PKBbeta S474D mutant (120 to end residues) assessed as residual activity at 1 uM using GRPRTSSFAEGKK as substrate measured after 40 mins in presence of [gamma33P]ATP by scintillation counting method relative to control.
Data set [19] has as its target SRSF protein kinase 2 (Homo sapiens) (UniProt P78362). Nature of the data set: Inhibition of human SRPK2 (46 to end residues) assessed as residual activity at 1 uM using RSRSRSRSRSRSRSR as substrate measured after 40 mins in presence of [gamma33P]ATP by scintillation counting method relative to control.
The target of data set [20] is Tribbles homolog 2 (Homo sapiens) (UniProt Q92519). Nature of the data set: Inhibition of recombinant full-length human TRB2 at 1 uM assessed as residual activity at 1 uM using RRRFRPASPLRGPPK as substrate measured after 120 mins in presence of [gamma33P]ATP by scintillation counting method relative to control.

In general, inhibition refers to the share of the control response that was lost under treatment.

Sequence of Serine/threonine-protein kinase Nek6 (Homo sapiens) (Q9HC98 whole entry): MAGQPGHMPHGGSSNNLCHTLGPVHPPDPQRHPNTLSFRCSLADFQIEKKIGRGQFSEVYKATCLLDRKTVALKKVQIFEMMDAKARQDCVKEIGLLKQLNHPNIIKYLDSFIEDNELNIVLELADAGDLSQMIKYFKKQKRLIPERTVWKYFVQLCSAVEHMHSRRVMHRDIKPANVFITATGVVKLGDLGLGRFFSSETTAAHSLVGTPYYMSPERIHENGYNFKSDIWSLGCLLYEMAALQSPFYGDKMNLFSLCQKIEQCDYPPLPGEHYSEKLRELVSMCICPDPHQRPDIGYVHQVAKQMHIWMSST
Sequence of Dual specificity tyrosine-phosphorylation-regulated kinase 3 (Homo sapiens) (O43781 whole entry, the tested form may be a part): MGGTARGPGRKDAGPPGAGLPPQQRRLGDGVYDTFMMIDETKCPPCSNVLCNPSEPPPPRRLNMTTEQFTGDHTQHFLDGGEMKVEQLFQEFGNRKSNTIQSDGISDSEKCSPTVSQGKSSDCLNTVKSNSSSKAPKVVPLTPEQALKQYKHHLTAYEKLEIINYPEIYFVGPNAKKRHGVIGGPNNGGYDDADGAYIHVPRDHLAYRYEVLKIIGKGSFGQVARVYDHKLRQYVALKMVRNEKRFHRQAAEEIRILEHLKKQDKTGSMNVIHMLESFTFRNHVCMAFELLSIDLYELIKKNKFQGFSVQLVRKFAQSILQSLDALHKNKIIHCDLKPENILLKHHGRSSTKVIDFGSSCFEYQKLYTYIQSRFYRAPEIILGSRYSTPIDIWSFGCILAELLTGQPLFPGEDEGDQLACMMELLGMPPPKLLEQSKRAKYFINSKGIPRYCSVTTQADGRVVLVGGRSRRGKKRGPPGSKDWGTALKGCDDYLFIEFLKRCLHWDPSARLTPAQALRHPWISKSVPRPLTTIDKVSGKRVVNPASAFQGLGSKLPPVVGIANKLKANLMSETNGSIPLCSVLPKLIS
Sequence of Serine/threonine-protein kinase haspin (Homo sapiens) (Q8TF76 whole entry): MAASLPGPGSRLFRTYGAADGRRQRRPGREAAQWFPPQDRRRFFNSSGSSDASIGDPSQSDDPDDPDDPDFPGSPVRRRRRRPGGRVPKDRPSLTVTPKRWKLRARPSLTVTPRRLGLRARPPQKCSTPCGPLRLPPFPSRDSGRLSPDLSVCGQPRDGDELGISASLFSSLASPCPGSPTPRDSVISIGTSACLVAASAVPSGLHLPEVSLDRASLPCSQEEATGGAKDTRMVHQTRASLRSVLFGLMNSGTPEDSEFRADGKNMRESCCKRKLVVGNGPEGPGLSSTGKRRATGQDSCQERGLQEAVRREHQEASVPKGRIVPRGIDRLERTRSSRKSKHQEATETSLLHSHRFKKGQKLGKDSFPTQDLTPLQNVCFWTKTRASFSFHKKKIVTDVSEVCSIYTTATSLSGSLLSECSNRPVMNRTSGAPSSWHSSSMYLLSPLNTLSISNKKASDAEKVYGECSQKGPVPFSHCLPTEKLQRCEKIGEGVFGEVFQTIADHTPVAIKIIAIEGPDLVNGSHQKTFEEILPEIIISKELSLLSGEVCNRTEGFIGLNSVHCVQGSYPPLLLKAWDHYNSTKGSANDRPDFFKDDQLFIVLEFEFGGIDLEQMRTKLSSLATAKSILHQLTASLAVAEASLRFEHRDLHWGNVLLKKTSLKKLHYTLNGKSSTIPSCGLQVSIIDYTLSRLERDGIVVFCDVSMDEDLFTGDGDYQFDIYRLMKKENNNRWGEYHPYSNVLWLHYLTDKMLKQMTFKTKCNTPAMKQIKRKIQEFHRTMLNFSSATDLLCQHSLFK
Sequence of Homeodomain-interacting protein kinase 4 (Homo sapiens) (Q8NE63 whole entry): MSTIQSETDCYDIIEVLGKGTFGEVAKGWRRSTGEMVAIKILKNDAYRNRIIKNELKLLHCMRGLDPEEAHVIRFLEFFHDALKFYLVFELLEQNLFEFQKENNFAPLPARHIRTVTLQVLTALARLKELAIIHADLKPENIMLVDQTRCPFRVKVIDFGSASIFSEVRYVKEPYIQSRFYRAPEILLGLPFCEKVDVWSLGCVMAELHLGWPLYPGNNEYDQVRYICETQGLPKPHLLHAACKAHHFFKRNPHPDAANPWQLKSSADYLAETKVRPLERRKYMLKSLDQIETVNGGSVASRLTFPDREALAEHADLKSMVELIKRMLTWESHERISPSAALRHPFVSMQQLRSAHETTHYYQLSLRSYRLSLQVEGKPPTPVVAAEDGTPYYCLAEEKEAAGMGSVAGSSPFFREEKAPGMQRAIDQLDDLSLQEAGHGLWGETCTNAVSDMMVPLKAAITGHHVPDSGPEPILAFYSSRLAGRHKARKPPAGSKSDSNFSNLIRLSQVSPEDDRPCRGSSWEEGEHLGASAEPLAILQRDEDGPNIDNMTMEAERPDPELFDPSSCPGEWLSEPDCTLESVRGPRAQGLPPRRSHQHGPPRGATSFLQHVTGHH
Sequence of Casein kinase I isoform gamma-3 (Homo sapiens), Q9Y6M4 [UNDEFINED MUTATION] (Q9Y6M4 whole entry, looked up, stated change not applied, the tested form may be a part, canonical isoform): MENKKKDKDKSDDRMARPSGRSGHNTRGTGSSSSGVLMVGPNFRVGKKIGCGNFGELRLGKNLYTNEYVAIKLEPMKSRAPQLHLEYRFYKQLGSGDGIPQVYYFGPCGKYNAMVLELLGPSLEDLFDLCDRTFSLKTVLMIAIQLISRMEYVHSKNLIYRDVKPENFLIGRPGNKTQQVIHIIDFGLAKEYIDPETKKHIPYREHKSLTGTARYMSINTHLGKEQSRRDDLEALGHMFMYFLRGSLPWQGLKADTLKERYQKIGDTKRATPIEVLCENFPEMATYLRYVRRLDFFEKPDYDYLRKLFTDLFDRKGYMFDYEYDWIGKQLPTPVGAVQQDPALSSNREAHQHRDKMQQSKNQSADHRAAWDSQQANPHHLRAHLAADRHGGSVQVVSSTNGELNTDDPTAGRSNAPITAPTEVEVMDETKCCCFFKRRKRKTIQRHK
Sequence of Dual specificity mitogen-activated protein kinase kinase 3 (Homo sapiens) (P46734 whole entry, the tested form may be a part): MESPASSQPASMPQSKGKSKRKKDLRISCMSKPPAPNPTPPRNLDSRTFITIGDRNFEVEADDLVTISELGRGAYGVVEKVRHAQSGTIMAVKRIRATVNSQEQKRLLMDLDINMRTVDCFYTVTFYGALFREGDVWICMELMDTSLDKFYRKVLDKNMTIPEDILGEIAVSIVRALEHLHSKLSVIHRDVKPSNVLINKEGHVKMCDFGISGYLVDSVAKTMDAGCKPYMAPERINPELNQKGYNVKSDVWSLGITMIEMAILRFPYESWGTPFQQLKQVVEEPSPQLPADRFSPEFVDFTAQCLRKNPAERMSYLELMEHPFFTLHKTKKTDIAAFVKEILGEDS
Sequence of GSK-3beta (H350L mutant) (P49841 whole entry, looked up, stated change not applied, the tested form may be a part): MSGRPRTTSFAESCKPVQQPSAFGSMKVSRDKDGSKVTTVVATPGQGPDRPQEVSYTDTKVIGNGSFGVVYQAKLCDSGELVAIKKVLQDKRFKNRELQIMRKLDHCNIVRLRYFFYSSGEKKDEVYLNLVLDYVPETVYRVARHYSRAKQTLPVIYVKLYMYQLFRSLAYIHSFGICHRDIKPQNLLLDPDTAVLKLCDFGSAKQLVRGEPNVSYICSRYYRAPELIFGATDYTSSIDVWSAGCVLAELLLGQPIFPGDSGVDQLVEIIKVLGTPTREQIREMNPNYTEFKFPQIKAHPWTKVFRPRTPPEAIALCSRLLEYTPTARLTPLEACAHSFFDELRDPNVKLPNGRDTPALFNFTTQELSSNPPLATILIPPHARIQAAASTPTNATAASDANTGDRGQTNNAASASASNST
Sequence of Glycogen synthase kinase-3 alpha (Homo sapiens), P49840 [UNDEFINED MUTATION] (P49840 whole entry, looked up, stated change not applied, the tested form may be a part): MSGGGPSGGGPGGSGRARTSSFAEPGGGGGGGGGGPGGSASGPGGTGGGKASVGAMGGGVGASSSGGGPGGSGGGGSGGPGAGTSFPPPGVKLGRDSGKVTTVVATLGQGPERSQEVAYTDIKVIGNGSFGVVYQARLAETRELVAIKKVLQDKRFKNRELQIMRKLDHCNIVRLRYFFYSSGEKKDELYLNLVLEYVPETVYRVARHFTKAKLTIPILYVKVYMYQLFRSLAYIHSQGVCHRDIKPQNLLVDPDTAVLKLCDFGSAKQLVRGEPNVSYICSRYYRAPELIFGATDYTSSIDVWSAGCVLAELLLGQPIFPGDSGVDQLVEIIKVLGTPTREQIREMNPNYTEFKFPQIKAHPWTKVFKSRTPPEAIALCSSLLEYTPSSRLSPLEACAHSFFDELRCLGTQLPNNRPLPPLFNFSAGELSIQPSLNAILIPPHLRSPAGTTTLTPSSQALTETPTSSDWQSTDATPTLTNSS
Sequence of Serine/threonine-protein kinase 24 (Homo sapiens) (Q9Y6E0 whole entry, looked up, the tested form may be a part): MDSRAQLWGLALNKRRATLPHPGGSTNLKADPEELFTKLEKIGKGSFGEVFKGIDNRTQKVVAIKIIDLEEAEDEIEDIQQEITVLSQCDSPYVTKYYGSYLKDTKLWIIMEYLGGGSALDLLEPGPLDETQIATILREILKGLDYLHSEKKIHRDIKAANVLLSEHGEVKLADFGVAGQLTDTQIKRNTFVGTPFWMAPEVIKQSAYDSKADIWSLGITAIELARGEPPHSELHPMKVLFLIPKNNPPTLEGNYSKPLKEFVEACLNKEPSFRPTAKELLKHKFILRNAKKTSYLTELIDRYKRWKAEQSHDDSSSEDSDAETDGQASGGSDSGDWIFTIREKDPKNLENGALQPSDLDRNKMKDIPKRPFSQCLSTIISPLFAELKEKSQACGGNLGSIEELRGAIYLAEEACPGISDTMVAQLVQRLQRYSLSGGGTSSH
Sequence of Casein kinase I isoform delta (Homo sapiens) (P48730 whole entry, looked up, the tested form may be a part, canonical isoform): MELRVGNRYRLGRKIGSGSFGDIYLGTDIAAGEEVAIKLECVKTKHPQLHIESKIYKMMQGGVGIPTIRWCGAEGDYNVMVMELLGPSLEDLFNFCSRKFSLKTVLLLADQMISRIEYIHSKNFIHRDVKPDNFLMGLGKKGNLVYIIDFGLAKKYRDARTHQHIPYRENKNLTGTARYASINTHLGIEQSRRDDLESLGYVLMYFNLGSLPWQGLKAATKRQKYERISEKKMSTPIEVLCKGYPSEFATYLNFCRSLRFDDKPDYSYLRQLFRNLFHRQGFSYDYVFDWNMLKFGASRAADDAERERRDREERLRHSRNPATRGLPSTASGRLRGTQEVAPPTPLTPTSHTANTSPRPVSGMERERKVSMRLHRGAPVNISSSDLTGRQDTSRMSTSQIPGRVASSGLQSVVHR

Regarding `N=C1NC(=O)/C(=C\c2ccc(-c3cccc([N+](=O)[O-])c3)o2)S1`, the inhibition in [1] is 96%. In addition, the inhibition at 40 min, 10 µM against GSK-3beta (H350L mutant) turned out to be 95%. Moreover, the Activity came to 80% in data set [2]; 97% in [3]; 54% in data set [4]; 98% in data set [5]; 97% in [6]; 101% in data set [7]. In addition, the Activity in data set [8] was 76%; in [9], 106%; in data set [10], 59%; in [11], 92%; in data set [12], 82%; in data set [13] it was 85%. Further, the Activity was found to be 83% in data set [14]; 105% in data set [15]; 102% in data set [16]; 9% in data set [17]; 111% in [18]; 82% in data set [19]. Moreover, in data set [20], the Activity amounted to 40%.
For the compound `C=CCOC(=O)c1cc(-c2ccc(/C=C3/NC(=S)NC3=O)o2)ccc1Cl`, the inhibition in data set [1] was 93%. The inhibition at 40 min, 10 µM against GSK-3beta (H350L mutant) is 92%. The Activity in data set [2] worked out at 110%; in [3] it was 103%; in data set [4], 67%; in data set [5], 94%; in [6], 121%; in [7], 94%. Moreover, the Activity stood at 104% in data set [8]; 104% in data set [9]; 87% in data set [10]; 97% in data set [11]; 101% in data set [12]; 92% in [13]. For the same compound, the Activity is 90% in data set [14]; 106% in [15]; 98% in data set [16]; 21% in data set [17]; 102% in data set [18]; 99% in [19]. Further, the Activity in data set [20] was found to be 49%.

Source of the values: ChEMBL document CHEMBL4334438, “Discovery of novel glycogen synthase kinase-3α inhibitors: Structure-based virtual screening, preliminary SAR and biological evaluation for treatment of acute myeloid leukemia” (Eur J Med Chem, 2019).
